In patent publication US6770020B2 (priority 2001, dated 2004):

Tested on: human glioblastoma cells (TB 10)
Assay: MEPHISTO x-ray spectromicroscopy, Gd in nucleus vs. cytoplasm
Type: cell-based
Conditions: 10 mg/ml
Procedure: 1) For spectromicroscopy experiments, two series of cell cultures from different passages were prepared, in which 5×10^4 cells/cm^2 were plated in 35 mm plastic Petri dishes, each containing 4 to 5 gold-plated stainless steel substrates (5 mm diameter). The Gd exposure concentration was 10 mg/ml and the exposure times were 0 to 72 hours. At the end of the exposure periods, all dishes were carefully washed three times with phosphate buffered saline (PBS) to remove all unbound Gd-DTPA, fixed in 4% paraformaldheyde in PBS for 20 minutes, and then washed in Milii Q water. The samples were then air-dried at room temperature and etched by exposure to UV light from a low-pressure mercury lamp in the presence of ozone. UV/O3 etching selectively removes carbon and nitrogen from the cells without architectural distortion, thereby preserving the micro localization of all other elements.^(18,19) In the present study, etching was employed to reveal the local (i.e., nuclear) concentration of Gd which would otherwise not be detectable with x-ray absorption spectroscopy. The cell cultures were etched for 116 hours, at a distance of 5 mm from the UV lamp.
Microchemical analysis of the etched cell cultures was performed with the custom-built MEPHISTO (Microscope á Emission de PHotoélectrons par Illumination Synchrotronique de Type Onduleur) X-ray photoelectron emission microscope (X-PEEM), which uses an electron optics system (SpectroMicroTech, Orlando, Fla., USA) to form a magnified image of the photoelectrons emitted by a specimen under soft x-ray illumination. The image magnification is continuously variable up to 8000x, and the optimum lateral resolution is 20 nm^(15). The image pixel intensity (corresponding to total photoelectron yield, per unit area, per unit time) is recorded as a function of photon energy. […] The position and line-shape of spectral features provide element identification and chemical state information. Spectra can be acquired simultaneously from regions selected on the real time image of the sample surface, and the probed depth is on the order of 100 Å. For this work, the MEPHISTO X-PEEM was mounted on the HERMON beamline of the University of Wisconsin-Madison Synchrotron Radiation Center (Stoughton, Wis.).
MEPHISTO micrographs acquired at a specific photon energy were processed in Adobe Photoshop 5.0 software for Macintosh to enhance the contrast and add a scale bar. […]
A comparison of ICP-MS and MEPHISTO data, determines the calibration of the MEPHISTO analysis, and therefore quantitative information on the Gd concentration at the microscopic level. […] These factors were derived from the matching of MEPHISTO data from whole cells to the ICP-MS cell-bulk data, so that they quantitatively overlap. […]

## O=C([O-])CN(CCN(CC(=O)[O-])CC(=O)O)CCN(CC(=O)[O-])CC(=O)O.[Gd+3] [Gd-DTPA, gadolinium diethylene triamine pentaacetic acid]
Exposure time 6 hrs
  Ratio: Gd nucleus/Gd cytoplasm: 1.6
Exposure time 24 hrs
  Ratio: Gd nucleus/Gd cytoplasm: 2.1
Exposure time 48 hrs
  Ratio: Gd nucleus/Gd cytoplasm: 1.0
Exposure time 72 hrs
  Ratio: Gd nucleus/Gd cytoplasm: 1.3
